System: VGLUTs (GLU vesicular transport)
Test: Vesicular glutamate reuptake test ([3H]-glutamate, synaptic vesicles)
Format: biochemical, rat
Settings: for EC50: vesicular glutamate transport; for potency in words (EC50): based on EC50
Procedure: The EC50 was also determined for several of the compounds of the invention.
The vesicular glutamate reuptake was tested as previously described (Kish and Ueda, 1989; Naito and Ueda, 1985; Pietrancosta et al., 2010) with minor modifications. Aliquots of synaptic vesicles […] (obtained by differential centrifugation of rat cortex) were diluted in a solution containing 4 mM HEPES-KOH, pH 7.4 and 0.32M sucrose. The tested compounds were dissolved in 1% ethanol, 1% DMSO (pH was adjusted to 7.4 with 5% KOH) to initial concentrations comprised between 2 mM and 200 μM. The compounds were then diluted to desired final concentrations in a solution containing 10 mM HEPES-KOH, pH 7.4, 0.32 M sucrose, 4 mM KCl, 4 mM MgSO4 (named TPU). The tested compounds were pre-incubated in a solution containing 3 mM ATP-Mg, 1 mM L-aspartic acid, 100 μM glutamate and 0.4 mM […] and 0.4 μM [3H]-Glutamate (1.547 TBq/mmol). After 4 min at 37 °C, the reuptake reaction was initiated by the addition of rat synaptic vesicles. This mixture was incubated for 10 min at 37 °C before adding ice-cold TPU (3.5 mL) and rapidly filtering it through a membrane filter ([…], Millipore MF reference HAWP02500) using a vacuum collector. The filters were washed five times with 3.5 mL of cold TPU and placed in scintillation vials with a scintillation cocktail (optiphase hisafe 3, reference 1200-437, Perkin Elmer). The radioactivity related to the filters was measured in a Beckman LS 6500 scintillation spectrophotometer. The values obtained in the absence of ATP-Mg or in the presence of Carbonyl [COMPOUND LEFT OUT] 3-chlorophenylhydrazone (CCCP, 50 μM reference Sigma C2759) were used to determine the non-specific activity.

| SMILES | % inhibition of GLU vesicular transport at 20 μM (coumarin-derived compounds) [%] | EC50 (coumarin-derived compounds) [µM] | further results |
| --- | --- | --- | --- |
| COc1cc(Br)ccc1/N=N/c1cc2cc(C(=O)O)c(=O)oc2cc1OC [LSP9-4150] | 15 |  |  |
| COc1cc2oc(=O)c(C(=O)O)cc2cc1/N=N/c1ccc(-c2ccc(N)cc2)cc1 [LSP9-4089, (E)-6-((4′-aminobiphenyl-4-yl)diazenyl)-7-methoxy-2-oxo-2H-chromene-3-carboxylic Acid] | 35 |  |  |
| O=C(O)c1cc2cc(/C=C/c3ccccc3)ccc2oc1=O [LSP16-2074, (E)-2-oxo-6-styryl-2H-chromene-3-carboxylic Acid] | 30 |  |  |
| O=C(O)c1cc2cc(C#Cc3ccccc3)ccc2oc1=O [LSP17-1044, 2-oxo-6-(phenylethynyl)-2H-chromene-3-carboxylic Acid] | 30 |  |  |
| CCOC(=O)c1cc(C(=O)OCC)c2cc(-c3ccc(-c4ccc(-c5ccc6nc(C(=O)OCC)cc(C(=O)OCC)c6c5)cc4)cc3)ccc2n1 [LSP13-1153-YL153, Tetraethyl 6,6′-(biphenyl-4,4′-diyl)diquinoline-2,4-dicarboxylate] |  |  | % inhibition of GLU vesicular transport at 20 μM (quinoline-derived compounds): 69%; EC50 (quinoline-derived compounds): 12.3 µM |
| O=C(O)c1cc2cc(/N=N/c3ccccc3)ccc2oc1=O [LSP9-4126, (E)-2-oxo-6-(phenyldiazenyl)-2H-chromene-3-carboxylic Acid] | 5 |  |  |
| O=C(O)c1cc(C(=O)O)c2cc(/C=C/c3ccc(-c4ccc(/C=C/c5ccc6nc(C(=O)O)cc(C(=O)O)c6c5)cc4)cc3)ccc2n1 [LSP13-1173-YL173, 6,6′-2,2′-(biphenyl-4,4′-diyl)bis(ethene-2,1-diyl)diquinoline-2,4-dicarboxylic Acid] |  |  | % inhibition of GLU vesicular transport at 20 μM (quinoline-derived compounds): 72%; EC50 (quinoline-derived compounds): 15 µM |
| COc1cc2oc(=O)c(C(=O)O)cc2cc1/N=N/c1ccc(Br)cc1 [LSP9-3164] | 40 | 30 |  |
| O=C(O)c1cc2cc(C#Cc3ccccc3)c(O)cc2oc1=O [LSP17-1177, 7-hydroxy-2-oxo-6-(phenylethynyl)-2H-chromene-3-carboxylic Acid] | 20 | 267 |  |
| CCN(CC)c1cc2oc(=O)c(C(=O)O)cc2cc1-n1cc(-c2ccccc2)nn1 [LSP17-1153, 7-(diethylamino)-2-oxo-6-(4-phenyl-1H-1,2,3-triazol-1-yl)-2H-chromene-3-carboxylic Acid] | 62 | 15 |  |
| COc1cc2oc(=O)c(C(=O)O)cc2cc1C#Cc1ccc(-c2ccc(N)cc2)cc1 [LSP17-1127, 6-((4′-amino-[1,1′-biphenyl]-4-yl)ethynyl)-7-methoxy-2-oxo-2H-chromene-3-carboxylic Acid] | 40 |  |  |
| O=C(O)c1cc(C(=O)O)c2cc(-c3ccc(-c4ccc(-c5ccc6nc(C(=O)O)cc(C(=O)O)c6c5)cc4)cc3)ccc2n1 [LSP13-1160-YL160, 6,6′-(Biphenyl-4,4′-diyl)diquinoline-2,4-dicarboxylic Acid] |  |  | % inhibition of GLU vesicular transport at 20 μM (quinoline-derived compounds): 100%; EC50 (quinoline-derived compounds): 3.6 µM |
| CCN(CC)c1cc2oc(=O)c(C(=O)O)cc2cc1-n1cc(-c2ccc(-c3ccc(N)cc3)cc2)nn1 [LSP17-1154, 6-(4-(4′-amino-[1,1′-biphenyl]-4-yl)-1H-1,2,3-triazol-1-yl)-7-(diethylamino)-2-oxo-2H-chromene-3-carboxylic Acid] | 50 | 20 |  |
| COc1cc(/N=N/c2ccc(Br)cc2)cc2cc(C(=O)O)c(=O)oc12 [LSP9-3162] | 42 |  |  |
| O=C(O)c1cc2cc(/N=N/c3ccc(Br)cc3)ccc2oc1=O [LSP9-3160, (E)-6-((4-bromophenyl)diazenyl)-2-oxo-2H-chromene-3-carboxylic Acid] | 14 |  |  |
| O=C(O)c1cc2cc(/N=N/c3ccc(Br)cc3)c(O)cc2oc1=O [LSP9-5096, (E)-6-((4-bromophenyl)diazenyl)-7-hydroxy-2-oxo-2H-chromene-3-carboxylic Acid] | 10 |  |  |
| COc1cc2oc(=O)c(C(=O)O)cc2cc1-n1cc(-c2ccccc2)nn1 [LSP17-1116, 7-methoxy-2-oxo-6-(4-phenyl-1H-1,2,3-triazol-1-yl)-2H-chromene-3-carboxylic Acid] | 45 | 25 |  |
| Nc1ccc(-c2ccc(C#Cc3ccc4oc(=O)c(C(=O)O)cc4c3)cc2)cc1 [LSP17-1125, 6-((4′-amino-[1,1′-biphenyl]-4-yl)ethynyl)-2-oxo-2H-chromene-3-carboxylic Acid] | 100 | 5 | potency in words (EC50): effective at a very low concentration |
| O=C(O)c1cc2cc(-n3cc(-c4ccccc4)nn3)ccc2oc1=O [LSP17-1100, 2-oxo-6-(4-phenyl-1H-1,2,3-triazol-1-yl)-2H-chromene-3-carboxylic Acid] | 48 | 23 |  |
| COc1cc(Br)ccc1/N=N/c1cc(OC)c2oc(=O)c(C(=O)O)cc2c1 [LSP9-3163] | 9 |  |  |
| COc1cc2oc(=O)c(C(=O)O)cc2cc1/C=C/c1ccccc1 [LSP16-2077, (E)-7-methoxy-2-oxo-6-styryl-2H-chromene-3-carboxylic acid] | 30 |  |  |
| O=C(O)c1cc2cc(/N=N/c3ccccc3)c(O)cc2oc1=O [LSP9-4153, (E)-7-hydroxy-2-oxo-6-(phenyldiazenyl)-2H-chromene-3-carboxylic Acid] | 12 |  |  |
| COc1cc2oc(=O)c(C(=O)O)cc2cc1/N=N/c1ccccc1 [LSP9-4108, (E)-7-methoxy-2-oxo-6-(phenyldiazenyl)-2H-chromene-3-carboxylic Acid] | 30 | 50 |  |
| CCN(CC)c1cc2oc(=O)c(C(=O)O)cc2cc1C#Cc1ccccc1 [LSP17-1042, 7-(diethylamino)-2-oxo-6-(phenylethynyl)-2H-chromene-3-carboxylic Acid] | 12 |  |  |
| CCN(CC)c1cc2oc(=O)c(C(=O)O)cc2cc1C#Cc1ccc(-c2ccc(N)cc2)cc1 [LSP17-1126, 6-((4′-amino-[1,1′-biphenyl]-4-yl)ethynyl)-7-(diethylamino)-2-oxo-2H-chromene-3-carboxylic Acid] | 100 | 5 | potency in words (EC50): effective at a very low concentration |
| COc1cc2oc(=O)c(C(=O)O)cc2cc1C#Cc1ccccc1 [LSP17-1046, 7-methoxy-2-oxo-6-(phenylethynyl)-2H-chromene-3-carboxylic Acid] | 48 | 21 |  |

Source: patent US20260374750A1, “LIGANDS SPECIFICALLY TARGETING VESICULAR GLUTAMATE TRANSPORTERS FOR SUPER-RESOLUTION IMAGING” (SORBONNE UNIVERSITÉ, priority 2021, published 2026)
